The values below come from patent US8492559B2, “Substituted indole compounds” (Gruenenthal GmbH, priority 2009, dated 2013).

Structures are written as SMILES.

One may read the inhibition as the share of the control response that was lost under treatment.

For one experiment, the target named is T1, human B1R receptor (hB1R) (Homo sapiens, UniProt P46663).
T1 construct: expressed in transfected cells; host or cells: CHO K1 cells
T1 sequence (P46663 1-353): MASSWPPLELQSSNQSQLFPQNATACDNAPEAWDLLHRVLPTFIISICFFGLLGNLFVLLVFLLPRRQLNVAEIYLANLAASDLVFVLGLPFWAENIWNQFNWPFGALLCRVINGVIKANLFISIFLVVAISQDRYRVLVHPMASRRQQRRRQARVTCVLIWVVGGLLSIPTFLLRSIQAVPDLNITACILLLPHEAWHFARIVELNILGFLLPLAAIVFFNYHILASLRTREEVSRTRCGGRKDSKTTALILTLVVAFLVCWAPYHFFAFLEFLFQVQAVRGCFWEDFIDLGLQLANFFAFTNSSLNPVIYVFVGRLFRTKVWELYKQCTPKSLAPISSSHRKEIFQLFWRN
Briefly: Functional investigation on the bradykinin 1 receptor (B1R), FLIPR Ca2+ assay, hB1R cells. The experiment is classed as cell-based. As to conditions: 10 μM test substance; CHO K1 cells with human B1R; agonist Lys-Des-Arg9 bradykinin; % of maximum achievable inhibition. As for the experimental part:
The agonistic or antagonistic action of substances can be quantified on the bradykinin 1 receptor (B1R) of the human and rat species with ectopically expressing cell lines (CHO K1 cells) and with the aid of a Ca^2+-sensitive dye (Fluo-4) using a fluorescent imaging plate reader (FLIPR). The indication in % activation is based on the Ca^2+ signal after addition of Lys-Des-Arg^9 bradykinin (0.5 nM) or Des-Arg^9 bradykinin (100 nM). Antagonists lead to a suppression of the Ca^2+ influx following administration of the agonist. The % inhibition in comparison with the maximum achievable inhibition is indicated.
1. Functional Investigation on the Bradykinin 1 Receptor (B1R)
The agonistic or antagonistic action of substances can be determined on the bradykinin 1 receptor (B1R) of the human and rat species with the following assay. According to this assay, the Ca^2+ inflow through the channel is quantified with the aid of a Ca^2+-sensitive dye (Fluo-4 type, Molecular Probes Europe BV, Leiden, Netherlands) in a fluorescent imaging plate reader (FLIPR, Molecular Devices, Sunnyvale, USA).
Chinese hamster ovary cells (CHO K1 cells) which are stably transfected with the human B1R gene (hB1R cells) or the B1R gene of the rat (rB1R cells) are used. For functional investigations these cells are plated-out onto black 96-well plates with a clear base (BD Biosciences, Heidelberg, Germany or Greiner, Frickenhausen, Germany) in a density of 20,000-35,000 cells/well. Overnight the cells are incubated at 37° C. and 5% CO2 in culture medium (hB1R cells: Ham's Nutrient Mixture F12, Gibco Invitrogen GmbH, Karlsruhe, Germany or DMEM, Sigma-Aldrich, Taufkirchen, Germany; rB1R cells: D-MEM/F12, Gibco Invitrogen, Karlsruhe, Germany) with 10 vol. % FBS (foetal bovine serum, Gibco Invitrogen GmbH, Karlsruhe, Germany or PAN Biotech GmbH, Aidenbach, Germany).
On the following day the cells are loaded with 2.13 μM Fluo-4 (Molecular Probes Europe BV, Leiden, Netherlands) in HBSS buffer (Hank's buffered saline solution, Gibco Invitrogen GmbH, Karlsruhe, Germany) with 2.5 mM probenecid (Sigma-Aldrich, Taufkirchen, Germany) and 10 mM HEPES (Sigma-Aldrich, Taufkirchen, Germany) for 60 min at 37° C. The plates are subsequently washed twice with HBSS buffer, and HBSS buffer which additionally contains 0.1% BSA (bovine serum albumin; Sigma-Aldrich, Taufkirchen, Germany), 5.6 mM glucose and 0.05% gelatine (Merck KGaA, Darmstadt, Germany) is added. After a further incubation of 20 minutes at room temperature, the plates are inserted into the FLIPR for Ca^2+ measurement.
Alternatively they are washed with buffer A (15 mM HEPES, 80 mM NaCl, 5 mM KCl, 1.2 mM CaCl2, 0.7 mM MgSO4, 2 g/l glucose, 2.5 mM probenecid) and loaded with buffer A with added 2.5 μM Fluo-4 and 0.025% Pluronic F127 (Sigma-Aldrich, Taufkirchen, Germany). The cells are then washed twice with buffer A and incubated for 30 minutes with buffer A, which additionally contains 0.05% BSA and 0.05% gelatine, at room temperature and then used for Ca^2+ measurement in the FLIPR. The Ca^2+-dependent fluorescence is measured here before and after addition of substances (λex=488 nm, λem=540 nm). The quantification is performed by measuring the highest fluorescence intensity (FC, fluorescence counts) over time.
The FLIPR protocol comprises two additions of substance. Test substances (10 μM) are first pipetted onto the cells and the Ca^2+ inflow is compared with the control (hB1R: Lys-Des-Arg^9 bradykinin>=50 nM; rB1R: Des-Arg^9 bradykinin 10 μM). The value in % activation based on the Ca^2+ signal after addition of Lys-Des-Arg^9 bradykinin (>=50 nM) or Des-Arg^9 bradykinin (10 μM) is obtained therefrom. After incubation for 10-20 minutes, Lys-Des-Arg^9 bradykinin (hB1R) or Des-Arg^9 bradykinin (rB1R) is applied in the EC80 concentration and the inflow of Ca^2+ is likewise determined.
Antagonists lead to a suppression of the Ca^2+ inflow. The % inhibition in comparison with the maximum achievable inhibition is calculated. […]
For `COc1cc(C)c(S(=O)(=O)Nc2cccc3ccn(CC(=O)N4CCC5(CC4)CCN(c4ccncc4)CC5)c23)c(C)c1` [Compound G-05, 4-Methoxy-2,6-dimethyl-N-[1-[2-oxo-2-(9-pyridin-4-yl-3,9-diazaspiro[5.5]undecan-3-yl)-ethyl]-1H-indol-7-yl]-benzenesulfonic acid amide], the “B1R antagonism, human [10 μM] % inhibition” value was found to be 100%.

The same experiment, now with this note: 10 μM test substance; CHO K1 cells with human B1R; agonist Lys-Des-Arg9 bradykinin; % of maximum achievable inhibition; 10 µM.
In the case of `O=C(CCn1ccc2ccc(N3Cc4cccc(Cl)c4C3=O)cc21)N1CCC2(CC1)CCN(c1ccncc1)CC2` [G_CC-67, 7-Chloro-2-[1-[3-oxo-3-(3-pyridin-4-yl-3,9-diazaspiro[5.5]undecan-9-yl)-propyl]-1H-indol-6-yl]-2,3-dihydro-isoindol-1-one], the “B1R antagonism, human [10 μM] % inhibition” value was 99%.

The same experiment, now with this note: CHO-K1, 10 μM test substance; CHO K1 cells with human B1R; agonist Lys-Des-Arg9 bradykinin; % of maximum achievable inhibition; read-out: B1R antagonism, human [10 μM] % inhibition.
Take `COc1cc(C)c(S(=O)(=O)Nc2cccc3ccn(CC(=O)N4CCC5(CCC(Oc6ccncc6)CC5)CC4)c23)c(C)c1` [Compound G-22, 4-Methoxy-2,6-dimethyl-N-(1-(2-oxo-2-(9-(pyridin-4-yloxy)-3-azaspiro[5.5]undecan-3-yl)ethyl)-1H-indol-7-yl)benzenesulfonic acid amide]: the inhibition at 10 µM came to 100%.

Regarding `COc1cc(C)c(S(=O)(=O)Nc2ccc3ccn(CC(=O)N4CCC(N5CCN(C)CC5)CC4)c3c2)c(C)c1` [G_CC-2, 4-Methoxy-2,6-dimethyl-N-[1-[2-[4-(4-methyl-piperazin-1-yl)-piperidin-1-yl]-2-oxo-ethyl]-1H-indol-6-yl]-benzenesulfonic acid amide], the inhibition at 10 µM was determined as 46%.

Take `O=C(CCn1ccc2ccc(N3Cc4cccc(Cl)c4C3=O)cc21)N1CCC2(CC1)CCN(c1ccncc1)CC2` [Compound G-07, 7-Chloro-2-[1-[3-oxo-3-(9-pyridin-4-yl-3,9-diazaspiro[5.5]undecan-3-yl)-propyl]-1H-indol-6-yl]-2,3-dihydro-isoindol-1-one]: the inhibition at 10 µM amounted to 96%.

As to `COc1cc(C)c(S(=O)(=O)Nc2cccc3ccn(CC(=O)N4CCC5(CCC(N6CCC6)CC5)CC4)c23)c(C)c1` [Compound G-18, N-(1-(2-(9-(azetidin-1-yl)-3-azaspiro[5.5]undecan-3-yl)-2-oxoethyl)-1H-indol-7-yl)-4-methoxy-2,6-dimethylbenzenesulfonic acid amide], the inhibition at 10 µM is 99%.

Take `O=C(Cn1ccc2ccc(N3CCn4c(c(Cl)c5ccccc54)C3=O)cc21)N1CCC2(CC1)CCN(c1ccncc1)CC2` [Compound G-31, 10-Chloro-2-[1-[2-oxo-2-(9-pyridin-4-yl-3,9-diazaspiro[5.5]undecan-3-yl)-ethyl]-1H-indol-6-yl]-3,4-dihydro-2H-pyrazino[1,2-a]indol-1-one]: the inhibition at 10 µM amounted to 80%.

Turning to `COc1cc(C)c(S(=O)(=O)Nc2cccc3ccn(CC(=O)N4CCC5(CCN(c6ccncc6)CC5)C4)c23)c(C)c1` [Compound G-14, 4-Methoxy-2,6-dimethyl-N-(1-(2-oxo-2-(8-(pyridin-4-yl)-2,8-diazaspiro[4.5]decan-2-yl)ethyl)-1H-indol-7-yl)benzenesulfonic acid amide], the inhibition at 10 µM came to 99%.

For `Cc1ccc2n1C(=O)N(c1ccc3ccn(CC(=O)N4CCC5(CC4)CCN(c4ccncc4)CC5)c3c1)C2` [Compound G-27, 5-Methyl-2-[1-[2-oxo-2-(9-pyridin-4-yl-3,9-diazaspiro[5.5]undecan-3-yl)-ethyl]-1H-indol-6-yl]-1,2-dihydro-pyrrolo[2,1-e]imidazol-3-one], the inhibition at 10 µM is 96%.

Take `Cc1cc(S(=O)(=O)Nc2cccc3ccn(CCC(=O)N4CCN(CC5CCN(C)CC5)CC4)c23)c(C)cc1Cl` [G_CC-62, 4-Chloro-2,5-dimethyl-N-[1-[3-[4-[(1-methyl-piperidin-4-yl)-methyl]-piperazin-1-yl]-3-oxo-propyl]-1H-indol-7-yl]-benzenesulfonic acid amide]: the inhibition at 10 µM came out at 94%.

Take `COc1cc(C)c(S(=O)(=O)Nc2ccc3ccn(CC(=O)N(C)CCCN4CCN(c5ccncc5)CC4)c3c2)c(C)c1` [G_CC-76, 2-[6-[[(4-Methoxy-2,6-dimethyl-phenyl)sulfonyl]amino]-1H-indol-1-yl]-N-methyl-N-[3-(4-pyridin-4-yl-piperazin-1-yl)-propyl]-acetamide]: the inhibition at 10 µM is 92%.

Take `Cc1cccc2c1C(=O)N(c1ccc3ccn(CC(=O)N4CCC5(CC4)CCN(c4ccncc4)CC5)c3c1)C2` [Compound G-26, 7-Methyl-2-[1-[2-oxo-2-(9-pyridin-4-yl-3,9-diazaspiro[5.5]undecan-3-yl)-ethyl]-1H-indol-6-yl]-2,3-dihydro-isoindol-1-one]: the inhibition at 10 µM amounted to 98%.

With `COc1cc(C)c(S(=O)(=O)Nc2cccc3ccn(CCC(=O)N4CCC5(CC4)CCN(c4ccncc4)CC5)c23)c(C)c1` [G_CC-54, 4-Methoxy-2,6-dimethyl-N-[1-[3-oxo-3-(3-pyridin-4-yl-3,9-diazaspiro[5.5]undecan-9-yl)-propyl]-1H-indol-7-yl]-benzenesulfonic acid amide], the inhibition at 10 µM came to 99%.

Turning to `COc1cc(C)c(S(=O)(=O)Nc2cccc3ccn(CC(=O)N4CCC(OCCN5CCCC5)(c5cccnc5)CC4)c23)c(C)c1` [Compound G-06, 4-Methoxy-2,6-dimethyl-N-[1-[2-oxo-2-[4-pyridin-3-yl-4-(2-pyrrolidin-1-yl-ethoxy)-piperidin-1-yl]-ethyl]-1H-indol-7-yl]-benzenesulfonic acid amide], the inhibition at 10 µM is 83%.

Regarding `O=C(Cn1ccc2ccc(N3Cc4cccc(Cl)c4C3=O)cc21)N1CCC2(CCC(N3CC(F)(F)C3)CC2)CC1` [Compound G-20, 7-Chloro-2-(1-(2-(9-(3,3-difluoroazetidin-1-yl)-3-azaspiro[5.5]undecan-3-yl)-2-oxoethyl)-1H-indol-6-yl)isoindolin-1-one], the inhibition at 10 µM came out at 43%.

For the compound `O=C(Cn1ccc2ccc(N3Cc4cccc(Cl)c4C3=O)cc21)N1CCC2(CC1)CCN(c1ccncc1)CC2` [Compound G-08, 7-Chloro-2-[1-[2-oxo-2-(9-pyridin-4-yl-3,9-diazaspiro[5.5]undecan-3-yl)-ethyl]-1H-indol-6-yl]-2,3-dihydro-isoindol-1-one], the inhibition at 10 µM is 98%.

As to `O=C(Cn1ccc2ccc(N3Cc4cccc(Cl)c4C3=O)cc21)N1CCC2(CC1)CC(c1ccncc1)=NO2` [Compound G-15, 7-Chloro-2-(1-(2-oxo-2-(3-(pyridin-4-yl)-1-oxa-2,8-diazaspiro[4.5]dec-2-en-8-yl)ethyl)-1H-indol-6-yl)isoindolin-1-one], the inhibition at 10 µM came out at 81%.
